The source of these data is publication PMC5531531, “A synthetic cationic antimicrobial peptide inhibits inflammatory response and the NLRP3 inflammasome by neutralizing LPS and ATP” (PLoS ONE, 2017).

No end group written: not given here.

Series [1] deals with PGN-, Pam3CSK4- and CPS-activated RAW 264.7 macrophages. The series is described as follows: NO generation induced by other bacterial components in RAW 264.7 (Griess reaction). The class given is cell-based, mouse. The following applies: 24 h, Fig 1B. The protocol:
RAW 264.7 cells (2 × 10^5 in 0.5 ml of medium) were seeded in 24-well plates and then incubated with or without LPS (0.1 μg/ml) in the absence or presence of AMP for 24 h. The effects of AMP on NO production were measured indirectly by analyzing nitrite levels using the Griess reaction as described in detail previously.
Fig 1 Effects of GW-A2 on the expression levels of inflammatory mediators. (A) RAW 264.7 macrophages were incubated for 30 min with or without GW-A2 or scrambled GW-A2, followed by incubation with or without 0.1 μg/ml of E. coli LPS or Salmonella LPS for 24 h. The levels of NO in the culture medium were measured by the Griess reaction. (B) RAW 264.7 macrophages were incubated for 30 min with or without GW-A2, followed by incubation with or without peptidoglycan (20 μg/ml), Pam3CSK4 (0.2 μg/ml) or capsular polysaccharide (3 μg/ml) for 24 h. The levels of NO in the culture medium were measured by the Griess reaction. (C) RAW 264.7 macrophages were incubated for 30 min with or without GW-A2, followed by incubation with or without 0.1 μg/ml of E. coli LPS for 24 h. The levels of iNOS and COX-2 were assessed by Western blotting and the histograms represent the expression levels compared to the LPS alone group obtained in three different experiments. (D) RAW 264.7 macrophages were incubated for 30 min with or without GW-A2, followed by incubation with or without 0.1 μg/ml of E. coli LPS for 6 h. The mRNA levels of iNOS and COX-2 were assessed by quantitative real-time PCR. (E and F) RAW 264.7 macrophages (E) and human THP-1 macrophages (F) were incubated for 30 min with or without GW-A2, followed by incubation with or without 0.1 μg/ml of E. coli LPS for 24 h. The levels of TNF-α and IL-6 were assayed by ELISA. […] The cell proliferation was measured by AlamarBlue® assay. The data are expressed as the mean ± SD of three independent experiments. *, ** and *** indicate significant differences, representing p < 0.05, p < 0.01 and p < 0.001, respectively compared to stimulation alone. # indicates significant differences, representing p < 0.05 compared to 2 μM of GW-A2 group.

The subject of series [2] is THP-1 macrophages. The class given is cell-based, human. The protocol:
RAW 264.7 cells or THP-1 macrophages (5 × 10^3 in 0.1 ml of medium) were seeded in 96-well plates and then incubated with various doses of AMP for 24 h. An AlamarBlue® assay (AbD Serotec, Oxford, UK) was used to determine the cytotoxicity of the test AMP. The procedure was conducted following the protocol described in the manufacturer’s instructions.

With GAKYAKIIYNYLKKIANALW [GW-A2], the “NO inhibitory activity in Pam3CSK4-activated macrophages” value in series [1] (Pam3CSK4 0.2 μg/ml) is “much lower than that in LPS-activated macrophages”. Moreover, in series [1] (capsular polysaccharide 3 μg/ml), the “NO inhibitory activity in CPS-activated macrophages” value is reported as “much lower than that in LPS-activated macrophages”. In addition, the “NO inhibitory activity in PGN-activated macrophages” value in series [1] (peptidoglycan 20 μg/ml) is “much lower than that in LPS-activated macrophages”. Moreover, the “Viability of THP-1 macrophages” value in series [2] is given as “did not reduce”.
